# Tests used:
# chronic insomnia = test: Efficacy against insomnia in humans; type: in vivo; details: adult human with chronic insomnia; approximately 25 milligrams in a formulation prepared according to Example 3; self-reported
# [1] = test system: active seizures in an epileptic Entlebucher Mountain Dog; test: Arresting active seizures in canine; type: in vivo; details: single oral dose of 0.5-1.0 mg/kg in a formulation prepared according to Example 1
# [2] = Solubility in ethanol:glycerol; type: physicochemical; details: in 25:75 by volume ethanol:glycerol; stated as lower than the 25 grams per liter of cannabidiol anion in the formulation
# Excerpt: Cannabidiol is deprotonated in 0.5 molar potassium hydroxide in 190 proof ethanol to produce cannabidiol anion (2-(6-isopropenyl-3-methylcyclohex-2-en-1-yl)-3-hydroxy-5-pentylbenzene-1-oxide).
compound,measurement,setting,value
"CCCCCc1cc(O)c(CC=C(C)CCC=C(C)C)c(O)c1 [cannabigerol anion, 2-(3,7-dimethylocta-2,6-diene-1-yl)-3-hydroxy-5-pentylbenzene-1-oxide]",onset time of sedative effect,chronic insomnia,less than five
same,sedative effect on insomnia,chronic insomnia,effective at treating the insomnia
"C=C(C)C1CCC(C)=CC1c1c(O)cc(CCCCC)cc1O (centres unmarked) [cannabidiol anion, 2-(6-isopropenyl-3-methylcyclohex-2-en-1-yl)-3-hydroxy-5-pentylbenzene-1-oxide]",arrest of active seizures,[1],both consistently and instantaneously arrested active seizures
same,seizure duration and severity,[1],reduced seizure duration and severity
"C=C(C)[C@@H]1CCC(C)=C[C@H]1c1c(O)cc(CCCCC)cc1O [molecular cannabidiol, cannabidiol]",solubility of molecular cannabidiol,[2],< 25 grams per liter

# From patent US12419855B2, “Compositions comprising cannabinoid ions that are dissolved in glycerol” (Natural Extraction Systems, LLC, priority 2019, dated 2025)
